3 molecules from US5932208A, “Compositions and methods for the use of such compositions in human therapeutics, characterized by the association of a muramyl peptide with a cytokine” (Vacsyn S.A., priority 1993, dated 1999) can be followed below.

Where “and” joins values, the source holds several entries; their conditions need not be identical. Equal entries are not always repeated.

The subject of one data set is Swiss mice. In words: Endotoxic shock (D-galactosamine + LPS) model in Swiss mice. In kind it is in vivo. Particulars: for Average % mortality / Number of dead mice per total tested, Exp. 1 / Number of dead mice per total tested, Exp. 2 / Number of dead mice per total tested, Exp. 3: intravenously, mortality after 48 hours. Here is the method:
The administration of D-galactosamine with lipopolysaccharide (LPS) to Swiss mice induces endotoxic shock with at least 70% mortality in 24-48 hours. The prophylactic or therapeutic effect of murabutide was studied in this model in order to evaluate its anti-inflammatory activity when it is administered alone or in combination with α/β-IFN. […] On the contrary, pretreatment with a combination of murabutide and α/β-interferon induces significant protection with an incidence of mortality of only 33% (against 78% in the controls).
^1) The Swiss mice were tested intraperitoneally at time 0 with 18 mg
of Dgalactosamine + 50 ng of LPS. The mortality was measured after 48
^2) The compounds are administered intravenously either 3 hours befor

The next data set concerns circulating neutrophils. The data set can be described thus: Neutrophil count after repeated administration to humans (days 1, 3 and 5). In kind it is in vivo, human. The following applies: α-IFN 2a 1 MU and/or murabutide 7 mg on days 1, 3 and 5. Here is the method: Phase I/IIa tests were carried out on 3 groups of 6 healthy volunteers who received the following treatments on days 1, 3 and 5:
a) α-IFN 2a (1 MU) Roferon;
c) the association of the two immunostimulants.
By studying their influence on the number of circulating neutrophils.

A further data set relates to sTNFR2. In words: In vitro incubation of blood of healthy volunteers: sTNFR2 secreted. In kind it is cell-based, human. Here is the method: (§1) Blood taken from healthy volunteers was incubated in vitro with different combinations associating murabutide and α-IFN. The murabutide was used at a dose of 20 μg/ml and the IFN was used at a dose of from 30 to 100 μ/ml. At different times in the course of incubation, blood samples are taken and the mononucleated cells are separated on a Ficoll gradient. The total RNA is extracted, purified and separated by electrophoresis. It is then analysed in accordance with the Schreck method in order to determine by a hybridisation technique what genes were induced by the treatment.
(§2) Studies similar to those described above were carried out in order to study the murabutide-GM-CSF association. These studies were carried out in vitro on the cells of healthy volunteers after incubation with immunomodulators alone or in association.
(§3) Specific cytokines were sought and measured in the supernatants (see Table XIII).

The subject of data set [1] is Soluble TNF receptor (STNF-R). In words: Soluble TNF receptor (STNF-R) ELISA test in serum. In kind it is in vivo, human. Particulars: α-IFN 6 × 10^6 units and/or murabutide 100 μg/Kg. Here is the method:
These tests are carried out by an ELISA test in the serum of subjects having 6M units of IFN. At that dose, there is already an appreciable increase in the amount of STNF-R but the addition of murabutide permits a significant increase in the secretion of that mediator.
(ELISA stands for enzyme-linked immunosorbent assay.)

For the next data set, the system named is G-CSF. In words: G-CSF test on sera of healthy volunteers. In kind it is in vivo, human. Particulars: α-IFN 0, muramyl peptide 100 μg/Kg alone; for Amounts of G-CSF in serum after 0 hour: before administration. Here is the method:
(§4) They receive subcutaneously the mixtures described in the following table I of murabutide (MUB) or murametide (MUM) with α-interferon 2a (α-IFN).
(§5) Blood samples are taken before injection and 6 hours, 24 hours and 48 hours after injection, in order to collect the serum necessary to carry out the tests for neopterine, interleukin 1, 6 and 8, G-CSF, IL-1 RA and α-TNF.
(§6) The blood samples for the serum tests are centrifuged at 4° C. and 3000 rpm for 10' immediately after they are taken. The sera are stored at -20° C. The leucocyte counts and the neopterine and cytokine tests are carried out using commercial kits.
These tests were carried out using the British Biotechnology Products Ltd. kit (see Table VI).

The test system of data set [2] is IL-6. In words: IL-6 test (Elisa) on sera of healthy volunteers. It is filed as in vivo, human. Particulars: α-IFN 0, muramyl peptide 100 μg/Kg alone; 6 hours after administration. On the procedure: as §4, §5, §6
The test is carried out using an Elisa test kit (British Biotechnology Products Ltd.) on sera taken at time 0 and after 6 hours. The figures express the pg/ml, the normal values are less than 6 pg.

Data set [3] deals with IL-1 receptor antagonist (IL-1 RA). In words: IL-1 receptor antagonist (IL-1 RA) test on sera of healthy volunteers. In kind it is in vivo, human. Particulars: α-IFN 0, muramyl peptide 100 μg/Kg alone; 6 hours after administration. On the procedure:
as §4, §5, §6

A further data set relates to IL-1 RA. In words: In vitro incubation of blood of healthy volunteers: IL-1 RA secreted. It is filed as cell-based, human. On the procedure: as §1, §2, §3
For a further data set, the system named is neutrophils. In words: Neutrophil counts in healthy volunteers after single subcutaneous administration. In kind it is in vivo, human. The following applies: α-IFN 0, muramyl peptide 100 μg/Kg alone; highest value during the 24 hours after administration. On the procedure:
as §4
The subjects are monitored during the three days following the administration of the IFN and/or the muramyl peptides, and all of the tests and investigations necessary to carry out a phase I test are effected.
Haematological analysis with white corpuscle counts at the time of injection and then 6 hours, 12 hours, 24 hours, 36 hours, 60 hours and 72 hours after injection.
The leucocyte counts are carried out in a COULTER COUNTER automatic cell counter.
Neutrophils are the cells which are the most affected by leucopenic treatments. It is the reduction in the amount of neutrophils which is responsible for the reduction in the non-specific immune defences in subjects subjected to radiotherapy or to cytotoxic and/or myelotoxic chemotherapy. To make reading easier, only the neutrophil counts made at the time when their variation is at its greatest have been given.

The test system of another data set is neopterine. In words: Neopterine test (RIA) on sera of healthy volunteers. The following applies: for Influence on the amount of neopterine, in words: dose of 100 μg/kg alone; for Neopterine in serum: muramyl peptide 100 μg/Kg alone (α-IFN 0). It is filed as in vivo, human. Here is the method:
as §4, §5, §6
The tests are carried out on sera taken at 0, 24 and 48 hours. An RIA (Radio Immuno Assay) kit (Behring Diagnostic, France) is used. The results are expressed in […], and the normal values vary from […].

For data set [4], the system named is IL-6. The data set can be described thus: In vitro incubation of blood of healthy volunteers: IL-6 secreted. In kind it is cell-based, human. Here is the method: as §1, §2, §3
The subject of a further data set is KHT sarcoma cells. The data set can be described thus: KHT sarcoma model in C3H/HeN mice, IL-2 with murametide. It is filed as in vivo. Here is the method: A murine model has been developed in C3H/HeN mice. KHT sarcoma cells are administered by the venous route. After 4 days and 6 days they are treated with:
c) the association of the two immunomodulators;
d) a fourth group is not treated.

[5] abbreviates: +1 hr, Murabutide 15 mg/kg and/or α/β-IFN 1.25 × 10^6 IU/kg (alone: 11.25 × 10^6 IU/kg [sic]).
Setting [6] is: Murabutide 15 mg/kg alone, -3 hrs.
Where [7] appears, read: GM-CSF 1 ng/ml, without or with Murabutide 20 μg/ml.
The mark [8] stands for this setting: GM-CSF 5 ng/ml, without or with Murabutide 20 μg/ml.

In the case of `CCCCOC(=O)[C@@H](CCC(N)=O)NC(=O)[C@H](C)NC(=O)[C@@H](C)O[C@H]1[C@H](O)[C@@H](CO)OC(O)[C@@H]1NC(C)=O` (stereo partly shown) [Murabutide, murabutide], in the data set on Swiss mice (setting [5]), the Average % mortality stood at 31%; the “Number of dead mice per total tested, Exp. 1” value was 2/9; the “Number of dead mice per total tested, Exp. 2” value is reported as 3/8; the “Number of dead mice per total tested, Exp. 3” value is listed as 3/9. Further, in the data set with Swiss mice (setting [6]), the Average % mortality was 74%; the “Number of dead mice per total tested, Exp. 1” value is on record as 7/9; the “Number of dead mice per total tested, Exp. 2” value was 7/8; the “Number of dead mice per total tested, Exp. 3” value is 6/10. In addition, in the data set with Swiss mice (administration 1 hour after the induction of endotoxic shock), the “Curative effect, in words” value is given as “significant curative effect”. The “Prophylactic effect against the galactosamine/LPS mixture, in words” value in the data set with Swiss mice (pretreatment of the mice) is reported as “does not give rise to a prophylactic effect”. For the same molecule, in the data set on circulating neutrophils (day of treatment 1), the “Neutrophil count (% of the base line) after 3 hours” value is listed as 139 ± 26 % of the base line, the “Neutrophil count (% of the base line) after 6 hours” value is given as 256 ± 51 % of the base line and the “Neutrophil count (% of the base line) after 12 hours” value is on record as 227 ± 46 % of the base line. Moreover, in the data set on circulating neutrophils (day of treatment 3), the “Neutrophil count (% of the base line) after 3 hours” value is 133 ± 24 % of the base line, the “Neutrophil count (% of the base line) after 6 hours” value is listed as 182 ± 27 % of the base line and the “Neutrophil count (% of the base line) after 12 hours” value is 176 ± 59 % of the base line. Besides, in the data set with circulating neutrophils (day of treatment 5), the “Neutrophil count (% of the base line) after 3 hours” value is 107 ± 19 % of the base line, the “Neutrophil count (% of the base line) after 6 hours” value is on record as 150 ± 28 % of the base line and the “Neutrophil count (% of the base line) after 12 hours” value is recorded as 153 ± 23 % of the base line. Also, in the data set on sTNFR2 (Murabutide 20 μg/ml alone), the “Average amounts of cytokines secreted: sTNFR2” value came to 1171 ± 478 pg/mL. For the same molecule, in data set [1], the “Amount of STNF-R in the serum, 0 hour” value was 195 ± 28 pg/mL and the “Amount of STNF-R in the serum, 6 hours” value is 616 ± 65 pg/mL. Further, in data set [1] (6 hours versus 0 hour), the STNF-R net increase was 31 ± 37 pg/mL. For the same molecule, in the data set with G-CSF, the “Amounts of G-CSF in serum after 6 hours” value turned out to be 18 ± 9 and the “Amounts of G-CSF in serum after 0 hour” value is on record as < 10. Besides, in the data set with IL-6 [2], the “Amounts of IL-6 in the serum” value is 2.80 ± 1.60 pg/mL and 4.30 ± 1.80 pg/mL. In [3], the “Amounts of IL-1 RA in the serum” value turned out to be 496 ± 326 pg/mL. The “Average amounts of cytokines secreted: IL-1 RA” value in the data set with IL-1 RA (Murabutide 20 μg/ml alone) came out at 7.8 ± 6.0 ng/mL. Further, in the data set with neutrophils, the “Neutrophil count % base line” value was found to be 268 ± 43 % base line. Moreover, in the data set with neopterine, the “Influence on the amount of neopterine, in words” value is reported as “does not influence the amount significantly”. In the data set on neopterine (T 0 hours), this molecule had a Neopterine in serum of 6.37 ± 0.99 nM. The Neopterine in serum with neopterine (T 24 hours) was 7.33 ± 0.75 nM. Besides, the Neopterine in serum in the data set on neopterine (T 48 hours) turned out to be 8.22 ± 1.39 nM. The “Average amounts of cytokines secreted: IL-6” value with IL-6 [4] (Murabutide 20 μg/ml alone) stood at 15.5 ± 11.3 pg/mL.

For the molecule GM-CSF: cytokine GM-CSF, the “Average amounts of cytokines secreted: sTNFR2” value is 1027 ± 624 pg/mL in the data set with sTNFR2 (setting [7]) and 1359 ± 350 pg/mL with sTNFR2 (setting [8]). In addition, the entries for the “Average amounts of cytokines secreted: IL-1 RA” value with IL-1 RA (setting [7]) and in the data set on IL-1 RA (setting [8]) were 4.0 ± 1.4 ng/mL and 8.7 ± 10.0 ng/mL, respectively. Also, the entries for the “Average amounts of cytokines secreted: IL-6” value with IL-6 [4] (setting [7]) and in the data set with IL-6 [4] (setting [8]) were 2.0 ± 1.5 pg/mL and 2.3 ± 2.1 pg/mL, respectively.

With `COC(=O)[C@@H](CCC(N)=O)NC(=O)[C@H](C)NC(=O)C(C)O[C@H]1[C@H](O)[C@@H](CO)O[C@H](O)[C@@H]1NC(C)=O` (stereo partly shown) [Murametide, murametide], the “Amounts of G-CSF in serum after 6 hours” value with G-CSF came to 73 ± 115. In addition, the “Amounts of G-CSF in serum after 0 hour” value with G-CSF came out at 61 ± 103. Further, the Antitumour activity result in the data set on KHT sarcoma cells (mice having pulmonary sarcoma metastases, preliminary data) is recorded as “no antitumour activity”. For the same molecule, the “Toxicity of IL-2 in mice having tumours” value in the data set on KHT sarcoma cells (mice having tumours) is “reduces the toxicity of IL-2”. In the data set with neutrophils, the “Neutrophil count % base line” value amounted to 279 ± 67 % base line. For the same molecule, the “Influence on the amount of neopterine, in words” value with neopterine is “does not influence the amount significantly”. Further, the Neopterine in serum stood at 5.43 ± 0.66 nM in the data set on neopterine (T 0 hours), 7.14 ± 1 nM in the data set with neopterine (T 24 hours) and 7.39 ± 1.37 nM with neopterine (T 48 hours).
